The values below are quoted from earlier work in patent US20250346572A1, “NON-ACID INHIBITORS OF INOSITOL HEXAKISPHOSPHATE KINASE (IP6K) AND METHODS OF USE THEREOF” (Lieber Institute, Inc., priority 2022, published 2025).

This data set concerns Mice treated with HFD. To be noted: HFD for 8 weeks, then daily intraperitoneal 20 mg/kg TNP and HFD for 18 days.

`O=[N+]([O-])c1ccc(CNc2nc(NCc3cccc(C(F)(F)F)c3)nc3nc[nH]c23)cc1` [TNP, N2-(m-trifluorobenzyl)-N6-(p-nitrobenzyl)purine]: the “glucose tolerance and insulin sensitivity” value is “improved glucose tolerance and insulin sensitivity”; the serum insulin levels entry was “lower serum insulin levels”.
